Assay results: the NIST ThermoML archive (doi:10.1021/acs.jced.8b00552)
Numbers after ± are expanded uncertainties.

Experiments:
[1] = Liquid, Ebulliometric method (Recirculating still)
[2] = refractive index (Na D-line) (dimensionless); conditions: 293.15 K; 101.33 kPa; Liquid; Standard Abbe refractometry

SMILES | vapor or sublimation pressure ([1]; 332.65 K) [kPa] | vapor or sublimation pressure ([1]; 342.63 K) [kPa] | vapor or sublimation pressure ([1]; 349.06 K) [kPa] | refractive index [2] | vapor or sublimation pressure ([1]; 333.65 K) [kPa] | vapor or sublimation pressure ([1]; 343.55 K) [kPa] | vapor or sublimation pressure ([1]; 348.55 K) [kPa]
CC(C)CO [2-methyl-1-propanol] | 12.17 ± 0.63 | 20.07 ± 0.63 | 26.53 ± 0.64 | 1.3957 ± 0.002 | – | – | –
CCC(C)=O [butanone] | 51.76 ± 0.63 | 72.71 ± 0.7 | 90.1 ± 0.79 | 1.3791 ± 0.002 | 52.42 ± 0.63 | 74.79 ± 0.7 | 88.29 ± 0.79
CCCCCO [pentan-1-ol] | – | – | – | 1.41 ± 0.002 | 3.43 ± 0.62 | 5.9 ± 0.62 | 7.67 ± 0.62
